Measured values taken from US7307102B2, “Method of preventing or treating estrogen-dependent diseases and disorders” (Duke University, priority 1997, dated 2007).

Key:
[1] = Bone mineral density in ovariectomized rats (DEXA, pQCT); assay type: in vivo, rat; conditions: oral, 28 days
Protocol: FIGS. 3A and 3B. […] FIG. 3A. […] FIG. 3B.
(§1) Animal preparation. […] At sacrifice, animals were euthanized with C02, body weights were recorded and the uteri were removed and weighed. Uterus, vagina and mammary tissue were fixed in 10% neutral buffered formalin. Samples for histologic processing were taken from the mid-point of each uterine horn. Tissue samples were embedded in paraffin, stained with haematoxylin and eosin and evaluated microscopically. Lumbar vertebrae and both left and right tibiae were excised. Total blood cholesterol was measured (Roche Biomedical Laboratories).

[2] = system: MCF-7 breast cancer tumors; experiment: Dose response study, MCF-7 breast cancer tumors in nude mice (Example 5); assay type: in vivo, mouse; conditions: after 8 weeks, 0.6 mg and 1.0 mg vs 1.0 mg tamoxifen, FIG. 10
Protocol: 10 OVX donor mice were injected with 5 million MCF-7 cells. The resulting tumors were transplanted to recipient mice. All animals were given slow release estradiol pellets. […] Tumors were measured daily with calipers, and the area calculated as follows: Area=½×w/2×π.

ER-TAF1 = experiment: C3 promoter-luciferase cotransfection assay in HepG2 cells, ER-TAF1 (AF-2 disrupted); assay type: cell-based, human
Excerpt: FIGS. 1A and 1B. […] The human C3 promoter (−1807 to +58) fused to the firefly luciferase reporter gene was transfected along with an expression plasmid containing (FIG. 1A) the wild-type human estrogen receptor (ERwt), or (FIG. 1B) a mutated ER in which the AF-2 function had been disrupted (ER-TAFl) into HepG2 cells and tested for transcriptional activation in the presence of increasing concentrations of ER-modulator as indicated. Transfections were normalized for efficiency and cell number by cotransfecting an expression plasmid containing β-galactosidase. The normalized response was obtained by dividing light units by the activity of β-galactosidase as measured in an enzymatic assay. Triplicate transfections were performed. The data shown are representative of multiple experiments performed under similar conditions.
FIGS. 2A-2C. […] FIG. 2A. […] FIG. 2B. […] FIG. 2C. […] Transfections were normalized for efficiency and cell number by cotransfecting an expression plasmid containing β-galactosidase. The normalized response was obtained by dividing light units by the activity of β-galactosidase as measured in an enzymatic assay. Representative assays are shown in which triplicate transfections were performed. Error bars represent the standard error of the mean (SEM).
HepG2 cells were maintained in Modified Eagles Medium (MEM) (Life Technologies, Grand Island, N.Y.) plus 10% Fetal Calf Serum (FCS) (Life Technologies). Cells were plated in 24 well plates (coated with gelatin) 24 hours prior to transfection. DNA was introduced into the cells using Lipofectin (Life Technologies). Briefly, triplicate transfections were performed using 3 μg of total DNA. For standard transfections, 500 ng of pCMV-β-Gal (normalization vector), 1500 ng reporter (variable) and 1000 ng receptor (pRST7-hER (Dana et al, Mol. Endocrinol. 8:1193-1207 (1994)) were used for each triplicate. Incubation of the cells with Lipofectin proceeded for 3 hrs, at which time media was removed, cells were washed with PBS and then induced with the appropriate hormone diluted in phenol red-free media containing 10% charcoal stripped CS (Cyclone Inc.). Incubation with hormone continued for 48 hrs, after which cells were lysed and assayed for luciferase and β-galactosidase activity as previously described (Norris et al, JBC 270:22777-22782 (1995)).
A series of in vitro screens have been developed that permit the classification of ER-modulators into four mechanistically distinct groups (Tzukerman et al, Mol. Endocrinol. 8:21-30 (1994)). […] Using these assays, it has been possible to derive “fingerprints” of known ER-modulators (McDonnell et al, Mol. Endocrinol. 9:659-669 (1995)).
Subsequently, the transfected cells were assayed for luceriferase and β-galactosidase activity. Each data point in this experiment represents the average of triplicate determinations of the transcriptional activity under given experimental conditions.

[3] = Uterine wet weight, body weight and uterine histology in ovariectomized rats, 28 day treatment; assay type: in vivo, rat
Protocol: FIGS. 8A-8D. […] Photographs were taken at 150× magnification and subsequently enlarged to a final magnification of 600×.
as §1
In addition to measurements of uterine wet weight, a histological examination of the uteri harvested from the same animals was performed (FIGS. 7A-7F (low magnification) and FIGS. 8A-8D (high magnification)).

CC/C(=C(\c1ccccc1)c1ccc(/C=C/C(=O)O)cc1)c1ccccc1 [GW5638]
bone mineral density, lumbar spine ([1]; 90-day old OVX rats, FIG. 3A): dose-dependent bone protective activity | tibial BMD ([1]; OVX rats, FIG. 3B): effective at maintaining total bone mass | dose at which bone protection is as effective as estradiol ([1]; lumbar spine BMD, OVX rats, 3 μmol/kg(1 mg/kg)): 3 µmol/kg | tumor growth compared with tamoxifen [2]: indistinguishable from the 1.0 mg tamoxifen | inhibition of the partial agonist activity of raloxifene on ER-TAF1 (ER-TAF1; ER-TAF1): inhibited | inhibition of estradiol- and tamoxifen-induced ER-TAF1 transcriptional activity (ER-TAF1; ER-TAF1, FIG. 2B): capable of inhibiting | agonist activity on ER-TAF1 (ER-TAF1; ER-TAF1, compound alone, FIG. 1B): functionally inactive | uterotrophic activity (uterine wet weight) ([3]; 90-day old OVX rats, 28 days, doses up to three times that required for bone protection, FIG. 6): minimal uterotrophic activity | total body weight versus sham operated animals ([3]; OVX rats, 28 days): no significant differences | uterine epithelial cells, histology ([3]; OVX rats, 28 days): dose-related hypertrophy | uterine stroma, histology ([3]; OVX rats, 28 days): marginal increase in intercellular connective tissue and ground substance | stromal response and eosinophilic infiltration at the highest doses ([3]; OVX rats, highest doses): less than observed in estradiol treated rats | epithelial hypertrophy at the highest doses ([3]; OVX rats, highest doses (3-fold higher than required for bone protection)): comparable to that of estradiol treated uteri
